Several values for one entry are separate records, joined by “and”; a condition that tells them apart may be missing. Equal values may be shown once. Read-outs that look alike come from different tables or passages of the source. Non-standard residues stand in square brackets, D forms with d. Residues, ends and D or L forms follow the SMILES beside them. *: point of attachment. Sta = CC(C)C[C@H](N)[C@@H](O)CC(=O)O; Isovaleryl = CC(C)CC(=O)*
Key:
Rlig1-AMP = molecular target: T1, Rlig1-AMP (Homo sapiens, UniProt Q8N999); experiment: FRET-based high-throughput screening of inhibitors for Rlig1-AMP; assay type: biochemical; details: for 1-D Distance.npi: MedChemExpress library; for Raw data [w Enyzm]: with enzyme; for Raw data [w/o Enzym]: without enzyme
T1 construct: made in house; host or cells: E. coli BL21 (DE3), pET15b-Rlig1
T1 sequence (Q8N999 whole entry): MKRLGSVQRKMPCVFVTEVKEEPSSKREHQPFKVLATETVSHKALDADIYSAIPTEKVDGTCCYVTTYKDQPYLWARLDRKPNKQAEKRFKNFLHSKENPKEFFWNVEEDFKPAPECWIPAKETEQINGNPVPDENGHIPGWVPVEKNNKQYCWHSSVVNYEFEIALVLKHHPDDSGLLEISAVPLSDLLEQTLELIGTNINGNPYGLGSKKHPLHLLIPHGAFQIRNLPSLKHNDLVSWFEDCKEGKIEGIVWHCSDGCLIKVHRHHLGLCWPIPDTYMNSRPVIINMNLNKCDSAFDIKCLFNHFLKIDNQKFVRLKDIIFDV

PI5P4Kα = system: PI5P4Kα; design: method as in MedChemExpress [1]; details: ref MedChemExpress [1], cited from earlier work
protein kinase C (PKC) = molecular target: protein kinase C (PKC); design: method as in MedChemExpress; details: PKC activity; ref MedChemExpress; cited from earlier work
[1] = ref MedChemExpress, cited from earlier work
pepsin = system: pepsin; design: method as in MedChemExpress; details: ref MedChemExpress, cited from earlier work
proctase = molecular target: proctase; design: method as in MedChemExpress; details: ref MedChemExpress, cited from earlier work
acid protease = system: acid protease; design: method as in MedChemExpress; details: ref MedChemExpress, cited from earlier work
[2] = DMSO; ultrasonic/warming; ref MedChemExpress; cited from earlier work
PKC = system: PKC; design: method as in MedChemExpress; details: ref MedChemExpress, cited from earlier work
[3] = sheet HTS hits, difference of raw data w/o and w enzyme
[4] = HTS hits, difference of raw data without and with enzyme
[5] = HTS hits, difference of raw data w/o and w enzyme

SMILES	1-D Distance.npi (Rlig1-AMP; sheet HTS hits)	1-D Distance (Rlig1-AMP; [3])	Raw data [w Enyzm] (Rlig1-AMP; sheet HTS hits)	Raw data [w/o Enzym] (Rlig1-AMP; sheet HTS hits)	1-D Distance (Rlig1-AMP; [4])	Raw data [w Enyzm] (Rlig1-AMP; HTS hits)	Raw data [w/o Enzym] (Rlig1-AMP; HTS hits)	IC50 (protein kinase C (PKC))	1-D Distance (Rlig1-AMP; [5])	solubility, DMSO [2]	further results
COc1cc(/C=C(\C#N)C(=O)c2ccc(O)c(O)c2)cc(I)c1O [I-OMe-Tyrphostin AG 538]	98.3407	515	1659	2174	–	–	–	–	–	–	IC50 (PI5P4Kα; ATP-competitive): 1000 nM
Cl.Cl.O=C1c2c(O)ccc(O)c2C(=O)c2c(NCCNCCO)ccc(NCCNCCO)c21 [Mitoxantrone (dihydrochloride)]	–	–	–	–	208	3238	3030	8500 nM	–	–	1-D Distance.npi (Rlig1-AMP; HTS hits): 101.642
O=C1c2c(O)ccc(O)c2C(=O)c2c(NCCNCCO)ccc(NCCNCCO)c21 [Mitoxantrone]	–	–	–	–	308	3553	3245	8500 nM	–	–	solubility ([1]; DMSO): 62.5 mg/mL and 140.61 mM; solubility ([1]; H2O): 100 mg/mL and 224.98 mM
CC(C)CC(=O)N[C@H](C(=O)N[C@H](C(=O)N[C@@H](CC(C)C)[C@@H](O)CC(=O)N[C@@H](C)C(=O)N[C@@H](CC(C)C)[C@@H](O)CC(=O)O)C(C)C)C(C)C [Pepstatin] (Isovaleryl-VV[Sta]A[Sta]-OH)	–	–	–	–	–	8928	10682	–	1754	125 mg/mL and 182.24 mM	IC50 (pepsin; substrate casein, read-out: IC50, casein-pepsin): 150 nM; IC50 (pepsin; substrate hemoglobin, read-out: IC50, hemoglobin-pepsin): 4.5 nM; IC50 (proctase; substrate casein, read-out: IC50, casein-proctase): 290 nM; IC50 (proctase; substrate hemoglobin, read-out: IC50, hemoglobin-proctase): 6.2 nM; IC50 (acid protease; substrate casein, read-out: IC50, casein-acid protease): 520 nM; IC50 (acid protease; substrate hemoglobin, read-out: IC50, hemoglobin-acid protease): 260 nM
CN(C)C/C=C/C(=O)Nc1ccc(C(=O)Nc2cccc(Nc3cc(-c4c[nH]c5ccccc45)ncn3)c2)cc1 [THZ-P1-2]	94.2865	656	5306	4650	–	–	–	–	–	–	IC50 (PI5P4Kα): 190 nM
CCCCC(=O)OCC(=O)[C@]1(O)Cc2c(O)c3c(c(O)c2[C@@H](O[C@H]2C[C@H](NC(=O)C(F)(F)F)[C@H](O)[C@H](C)O2)C1)C(=O)c1c(OC)cccc1C3=O [Valrubicin]	–	–	–	–	–	2541	4201	–	1660	125 mg/mL and 172.74 mM	IC50 (PKC; PDBu-induced, read-out: IC50, PDBu-induced PKC activation): 1250 nM; IC50 (PKC; TPA-induced, read-out: IC50, TPA-induced PKC activation): 850 nM
